Marks after values point to notes of the source that are not given here. Where no end group is shown, it is not given here. [ ]: non-standard residue; d: D form.
Tests used:
p62 = p62 degradation assay (p62/actin immunoblot);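 as to Activity (μM) 10, p62/actin assay activity: HeLa cells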;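 as to Activity (μM) 100, p62/actin assay activity: HeLa cells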;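 as to Activity (μM) 20, p62/actin assay activity: HeLa cells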;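 as to Activity (μM) 30, p62/actin assay activity: HeLa cells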;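 as to Activity (μM) 50, p62/actin assay activity: HeLa cells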; type: cell-based; parameters: key: −: activity not reported; 0: decreased vs. WT; +: similar to WT; ++: modest increase vs. WT; +++: significant increase vs. WT; conditions: for Activity (μM) 50, p62/actin assay activity: 50 μM; for Activity (μM) 100, p62/actin assay activity: 100 μM; for Activity (μM) 10, p62/actin assay activity: 10 μM; for Activity (μM) 20, p62/actin assay activity: 20 μM; for Activity (μM) 30, p62/actin assay activity: 30 μM
Description: (§1) Cells were treated with peptide in OPTI-MEM (Thermo Scientific) acidified with 0.15% (v/v) 6N HCl for 3 hour. Cells were rinsed with Dulbecco's phosphate buffered saline (PBS) and lysed in lysis buffer (20 mM HEPES, 150 mM NaCl, 1 mM EDTA, 1% Triton X-100, protease inhibitor cocktail (Roche) on ice for 1 hour. Cell lysates were centrifuged at 16,000 g for 10 min at 4° C. and analyzed by SDS-PAGE and transferred to PVDF membranes. The membranes were blocked 5% non-fat dry milk (NFDM) in PBST (PBS+0.05% Tween-20) for 1 hour, then incubated overnight at 4° C. with primary antibody in 5% NFDM in PBST. The blots were washed with PBST and incubated with HRP-conjugated secondary antibodies diluted in 5% NFDM in PBST for 1 hour at room temperature. Membranes were washed with PBST and visualized with SuperSignal West Pico Chemiluminescent Substrate (Thermo Scientific). Semi-quantitative results were obtained by noting the lowest concentration at which both p62 degradation and LC3-I to LC3-II conversion were observed.
(§2) Compounds 1-10 were evaluated using the assays described in Examples 4 and 5. Activity for each compound was measured in the p62 degradation assay and the LC3 marker assay as described herein. The activity at each concentration of peptide is given as, for example, (0/+) where 0 would be the p62/actin assay activity and + would be the LC3 assay activity.

LC3 = LC3 marker assay (LC3-I to LC3-II conversion immunoblot);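 as to Activity (μM) 10, LC3 assay activity: HeLa cells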;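 as to Activity (μM) 100, LC3 assay activity: HeLa cells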;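 as to Activity (μM) 20, LC3 assay activity: HeLa cells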;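 as to Activity (μM) 30, LC3 assay activity: HeLa cells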;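 as to Activity (μM) 50, LC3 assay activity: HeLa cells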; type: cell-based; parameters: key: −: activity not reported; 0: decreased vs. WT; +: similar to WT; ++: modest increase vs. WT; +++: significant increase vs. WT; conditions: for Activity (μM) 50, LC3 assay activity: 50 μM; for Activity (μM) 100, LC3 assay activity: 100 μM; for Activity (μM) 10, LC3 assay activity: 10 μM; for Activity (μM) 20, LC3 assay activity: 20 μM; for Activity (μM) 30, LC3 assay activity: 30 μM
Description: as §1, §2

[1] = Table 8, control compound T25, first symbol
[2] = Table 8, control compound T25, second symbol
[3] = Table 3, control vehicle, first symbol of cell
[4] = Table 3, control vehicle, first symbol
[5] = Table 7, control compound T25, first symbol
[6] = Table 3, control vehicle, second symbol of cell
[7] = Table 3, control vehicle, second symbol
[8] = Table 7, control compound T25, second symbol

For “RCNARCRIWR (H-R[dC]NAR[dC]RIWR; not fully specified (C-terminus); cysteine pairing not given here) [Compound 40]”, the “Activity (μM) 50, p62/actin assay activity” value (p62; [1]) was 0/0, the “Activity (μM) 100, p62/actin assay activity” value (p62; [1]) was 0/0 and the “Activity (μM) 50, LC3 assay activity” value (LC3; [2]) was 0/0. The “Activity (μM) 100, LC3 assay activity” value (LC3; [2]) was 0/0.

For VCNACFHIWH [Compound 4], the “Activity (μM) 10, p62/actin assay activity” value (p62; [3]) was 0/0, the “Activity (μM) 20, p62/actin assay activity” value (p62; [4]) was 0/0 and the “Activity (μM) 30, p62/actin assay activity” value (p62; [5]) was 0/0. The “Activity (μM) 50, p62/actin assay activity” value (p62; [4]) was 0/0, the “Activity (μM) 50, p62/actin assay activity” value (p62; [5]) was “++/++” and the “Activity (μM) 100, p62/actin assay activity” value (p62; [4]) was “+++”. The “Activity (μM) 100, p62/actin assay activity” value (p62; [5]) was “+++/+++”, the “Activity (μM) 10, LC3 assay activity” value (LC3; [6]) was 0/0 and the “Activity (μM) 20, LC3 assay activity” value (LC3; [7]) was 0/0. The “Activity (μM) 30, LC3 assay activity” value (LC3; [8]) was 0/0, the “Activity (μM) 50, LC3 assay activity” value (LC3; [7]) was 0/0 and the “Activity (μM) 50, LC3 assay activity” value (LC3; [8]) was “++/++”. The “Activity (μM) 100, LC3 assay activity” value (LC3; [7]) was “+” and the “Activity (μM) 100, LC3 assay activity” value (LC3; [8]) was “+++/+++”.

For VCNACFHIWH [Compound 9], the “Activity (μM) 10, p62/actin assay activity” value (p62; [3]) was 0/0, the “Activity (μM) 20, p62/actin assay activity” value (p62; [4]) was 0/0 and the “Activity (μM) 50, p62/actin assay activity” value (p62; [4]) was 0/0. The “Activity (μM) 10, LC3 assay activity” value (LC3; [6]) was 0/0, the “Activity (μM) 20, LC3 assay activity” value (LC3; [7]) was 0/0 and the “Activity (μM) 50, LC3 assay activity” value (LC3; [7]) was 0/0.

In the case of VCNACFHIWH [Compound 10], the “Activity (μM) 10, p62/actin assay activity” value (p62; [3]) is reported as 0, the “Activity (μM) 20, p62/actin assay activity” value (p62; [4]) is reported as 0 and the “Activity (μM) 50, p62/actin assay activity” value (p62; [4]) is reported as 0. For the same sequence, the “Activity (μM) 10, LC3 assay activity” value (LC3; [6]) was “+”, the “Activity (μM) 20, LC3 assay activity” value (LC3; [7]) was “++” and the “Activity (μM) 50, LC3 assay activity” value (LC3; [7]) was “+++”.

For VCNACFHIWH [Compound 52], the “Activity (μM) 50, p62/actin assay activity” value (p62; [1]) was 0, the “Activity (μM) 100, p62/actin assay activity” value (p62; [1]) was 0 and the “Activity (μM) 50, LC3 assay activity” value (LC3; [2]) was “+”. The “Activity (μM) 100, LC3 assay activity” value (LC3; [2]) was “+”.

In the case of VCNACFHIWH [Compound 53], the “Activity (μM) 50, p62/actin assay activity” value (p62; [1]) is reported as “+++”, the “Activity (μM) 100, p62/actin assay activity” value (p62; [1]) is reported as “+++” and the “Activity (μM) 50, LC3 assay activity” value (LC3; [2]) is reported as “++”. For the same sequence, the “Activity (μM) 100, LC3 assay activity” value (LC3; [2]) was “++”.

VCNACFHIWH [Compound 54] was tested, and the “Activity (μM) 10, p62/actin assay activity” value (p62; [1]) was “+”, the “Activity (μM) 30, p62/actin assay activity” value (p62; [1]) was “++” and the “Activity (μM) 50, p62/actin assay activity” value (p62; [1]) was “++”. The “Activity (μM) 10, LC3 assay activity” value (LC3; [2]) was 0, the “Activity (μM) 30, LC3 assay activity” value (LC3; [2]) was 0 and the “Activity (μM) 50, LC3 assay activity” value (LC3; [2]) was 0.

For VCNACFHIWH [Compound 55], the “Activity (μM) 10, p62/actin assay activity” value (p62; [1]) was 0/0, the “Activity (μM) 30, p62/actin assay activity” value (p62; [1]) was “++” and the “Activity (μM) 50, p62/actin assay activity” value (p62; [1]) was “+++”. The “Activity (μM) 10, LC3 assay activity” value (LC3; [2]) was 0/0, the “Activity (μM) 30, LC3 assay activity” value (LC3; [2]) was 0 and the “Activity (μM) 50, LC3 assay activity” value (LC3; [2]) was 0.

In the case of VCNACFHIWH [Compound 56], the “Activity (μM) 10, p62/actin assay activity” value (p62; [1]) is reported as 0/0, the “Activity (μM) 30, p62/actin assay activity” value (p62; [1]) is reported as “+” and the “Activity (μM) 50, p62/actin assay activity” value (p62; [1]) is reported as “+”. The “Activity (μM) 10, LC3 assay activity” value (LC3; [2]) was 0/0, the “Activity (μM) 30, LC3 assay activity” value (LC3; [2]) was 0 and the “Activity (μM) 50, LC3 assay activity” value (LC3; [2]) was 0.

VCNACFHIWH [Compound 57] was tested, and the “Activity (μM) 10, p62/actin assay activity” value (p62; [1]) was 0/0, the “Activity (μM) 30, p62/actin assay activity” value (p62; [1]) was “+” and the “Activity (μM) 50, p62/actin assay activity” value (p62; [1]) was “+”. The “Activity (μM) 10, LC3 assay activity” value (LC3; [2]) was 0/0, the “Activity (μM) 30, LC3 assay activity” value (LC3; [2]) was 0 and the “Activity (μM) 50, LC3 assay activity” value (LC3; [2]) was 0.

For VCNACFHIWH [Compound 69], the “Activity (μM) 30, p62/actin assay activity” value (p62; [1]) was 0/0, the “Activity (μM) 50, p62/actin assay activity” value (p62; [1]) was “++” and the “Activity (μM) 10, starred cell, p62/actin assay activity” value (p62; Table 8, 10 μM marked * (footnote: data taken at 20 instead of 30 μM), first symbol) was 0/0*. For the same sequence, the “Activity (μM) 30, LC3 assay activity” value (LC3; [2]) was 0/0, the “Activity (μM) 50, LC3 assay activity” value (LC3; [2]) was “+++” and the “Activity (μM) 10, starred cell, LC3 assay activity” value (LC3; Table 8, 10 μM marked * (footnote: data taken at 20 instead of 30 μM), second symbol) was 0/0*.

Reference: patent US10993983B2, “Cyclic peptide epitopes and small-molecule mimics for inducing autophagy” (TRUSTEES OF TUFTS COLLEGE, priority 2016, dated 2021)
